Data taken from ChEMBL document CHEMBL1156751, “Design, synthesis, and biological activity of bicyclic radester analogues as Hsp90 inhibitors” (Bioorg Med Chem Lett, 2009).

Experiments:
[1] = test system: MCF7; experiment: Antiproliferative activity against human MCF7 cells; assay type: functional, cell-based
[2] = test system: SK-BR-3; experiment: Antiproliferative activity against human SK-BR-3 cells; assay type: functional, cell-based
[3] = test system: MCF7; experiment: Selectivity ratio of IC50 for human SKBr3 cells to IC50 for human MCF7 cells; assay type: functional
[4] = Inhibition of Hsp90 N-terminal assessed as AKt degradation by Western blotting
[5] = Inhibition of Hsp90 N-terminal assessed as c-RAF degradation by Western blotting
[6] = Inhibition of Hsp90 N-terminal assessed as Her2 degradation by Western blotting
[7] = Inhibition of Hsp90 N-terminal assessed as increase in Hsp70 level

SMILES | IC50 [1] | IC50 [2] | Ratio IC50 [3] | Activity [4] | Activity [5] | Activity [6] | Activity [7]
COC1=C(CC(C)OC(=O)c2cc(Cl)c(O)cc2O)C(=O)C(NC=O)=CC1=O (stereo not drawn) [RADESTER] | 13.9 µM |  |  |  |  |  | 
COC1=C(C/C=C2/Cc3c(Cl)c(O)cc(O)c3C2=O)C(=O)C(NC=O)=CC1=O | 15.2 µM | 40.8 µM | 3 |  |  |  | 
COC1=C2C[C@@H](C)C[C@H](OC)[C@H](O)[C@@H](C)/C=C(\C)[C@H](OC(N)=O)[C@@H](OC)/C=C\C=C(/C)C(=O)NC(=CC1=O)C2=O [GELDANAMYCIN] | 0.0161 µM | 0.0158 µM |  |  |  |  | 
C[C@@H]1C[C@H]2O[C@@H]2/C=C\C=C\C(=O)Cc2c(Cl)c(O)cc(O)c2C(=O)O1 [RADICICOL] | 0.0477 µM | 0.0375 µM |  |  |  |  | 
COC1=C(C/C=C2/CCc3c(Cl)c(O)cc(O)c3C2=O)C(=O)C(NC=O)=CC1=O | 11.8 µM | 12.5 µM |  |  |  |  | 
COc1c(O)cc(NC=O)c(O)c1CCC1CCc2c(Cl)c(O)cc(O)c2C1=O (stereo not drawn) | 9.5 µM | 10.5 µM |  | Dose-dependent effect | Dose-dependent effect | Dose-dependent effect | Dose-dependent effect
COc1c(O)cc(NC=O)c(O)c1CCC1Cc2c(Cl)c(O)cc(O)c2C1=O (stereo not drawn) | 12.9 µM | 42.1 µM | 3 | Dose-dependent effect | Dose-dependent effect | Dose-dependent effect | Dose-dependent effect
COC1=C(CCC2Cc3c(Cl)c(O)cc(O)c3C2=O)C(=O)C(NC=O)=CC1=O (stereo not drawn) | 15.1 µM | 47.3 µM | 3 |  |  |  | 
COC1=C(CCC2CCc3c(Cl)c(O)cc(O)c3C2=O)C(=O)C(NC=O)=CC1=O (stereo not drawn) | 11.4 µM | 12.8 µM |  |  |  |  | 
